US20230381162A1, “TREATMENTS OF ANGIOEDEMA” (KALVISTA PHARMACEUTICALS LIMITED, priority 2020, published 2023)
Blank lines part the entries; values can stand above or below the compound they belong to.

Experiments:
[1] = higher doses; cited from earlier work
[2] = Phase 1 multiple dose study in healthy adult subjects: safety, ECG; format: in vivo, human; conditions: 3 x 600 mg every 8, 4 or 2 hours, total 1800 mg
Protocol: This is a phase 1, double-blind, placebo-controlled, multiple-dose, multiple-cohort study to evaluate safety and tolerability of the compound as well as of the ECG effects of the compound formulated as 100 mg Film Coated Tablets in healthy adult male and female subjects.
During the study, oral doses of 600 mg of the compound as Film Coated Tablets (six 100 mg tablets) or 6 matching placebo tablets will be administered once every 8 hours (Cohort 1) every 4 hours (Cohort 2), or every 2 hours (Cohort 3 and 4) to healthy adult male and female subjects up to a total dose of 1800 mg. In Cohorts 1, 2 and 3, 6 subjects will receive the compound as 100 mg Film Coated Tablets and 2 subjects will receive the placebo for a total of 8 subjects per cohort. In Cohort 4, 12 subjects will receive the compound as 100 mg Film Coated Tablets and 6 subjects will receive the placebo for a total of 18 subjects.
A Holter monitor will be attached to each subject in order to continuously record ECGs. The monitor will be attached 1 hour before the first dose and will remain attached until after the final blood sample collection. The electrodes for the Holter monitor will be checked by a member of the clinic staff at appropriate intervals to ensure they are attached.

[3] = tested on: angioedema attacks in adult subjects with hereditary angioedema type I or II; assay: Phase 2 study Part 2: on-demand treatment of HAE attacks, efficacy; format: in vivo, human; conditions: 600 mg
Protocol: This was a phase 2, two-part, two-sequence, two-period (2×2) cross-over clinical trial. Subjects with HAE type I or II were recruited through HAE treatment centres in Europe and US.
(§1) In Part 2, the subjects were randomized 1:1 to 2 treatment sequences. This part of the study was conducted away from the clinic or hospital. In Sequence 1 (study arm 1) subjects received a single dose of 600 mg of the compound to treat the first eligible HAE attack. Following resolution of this attack, subjects received a single dose of placebo to treat the second eligible HAE attack.
In Sequence 2 (study arm 2) subjects received a single dose of placebo to treat the first eligible HAE attack. Following resolution of this attack, subjects received a single dose of 600 mg of the compound to treat the second eligible HAE attack.
Laryngeal or facial attacks were not eligible for treatment. HAE attacks must have been treated within the first hour of onset and before reaching severe on the global attack severity scale. Subjects must also have been able to identify the start of a HAE attack. Upon onset of the eligible HAE attack, subjects notified the dedicated study physician or qualified designee with a description of the HAE attack. The dedicated study physician or qualified designee confirmed eligibility of the HAE attack and agreed to study drug being administered. HAE attacks required documentation, on the Subject Diary, of attack location, attack symptoms, time of onset, attack severity, and time of last substantial meal prior to dosing. Subjects took study drug, as instructed, and completed timed assessments of their HAE attack symptoms for a 48 h period as documented below in Table 3. The dedicated study physician or qualified designee contacted the subject within 24 h of the eligible HAE attack to confirm the subject's safety and wellbeing. Subjects were instructed to contact the dedicated study physician or qualified designee in case of any safety concerns. In the case of hypersensitivity, subjects contacted the dedicated study physician or qualified designee or contact the nearest emergency service. The dedicated study physician or qualified designee was available 24 h/day and 7 days/week to receive subject calls.
Time to use of conventional attack treatment was assessed. The subject diary captured the efficacy endpoints including time to use of conventional attack treatment and HAE attack severity.
Overall HAE attack severity was assessed on a 5-point Likert scale (5LS) scored as none, mild, moderate, severe and very severe.
Change in HAE attack severity was assessed using a 7-point transition question (7TQ), scored as Much better/Better/A little better/No change/A little worse/Worse/Much worse.
The type of HAE attack symptoms (abdominal pain, skin pain and skin swelling) was each assessed on a 100 mm visual analogue scale (VAS) anchored at 0 (none) and 100 (very severe).
The primary endpoint, time to use of conventional attack treatment, was analyzed using a generalization of Gehan's test proposed by Feingold and Gillespie (1996) (Crossover trials with censored data. Statistics in Medicine 1996; 15(10): 953-967) to reflect the repeat measures on each subject. Subjects were treated as censored if no worsening occurs within 12 h of study drug.
The proportion of HAE attacks that worsen by one level or more on the 5LS or that require conventional attack treatment within 12 h of study drug was analyzed using Prescott's test (1981) (The comparison of success rates in cross-over trials in the presence of an order effect. Applied Statistics 1981; 30: 9-15) to compare the treatment arms.
A similar approach to that used for the primary endpoint was followed for the analysis of the time between study drug and HAE attack worsening by one level or more on the 5LS or use of conventional attack treatment, whichever comes first within 12 h. […]

[4] = Phase 1 single ascending dose study: plasma concentrations (PK); format: in vivo, human; conditions: oral capsule, fasted, 5 mg to 600 mg
Protocol: (§2) This study was a randomized, double-blind, placebo-controlled single ascending dose (SAD) and crossover studies for food effect and capsule/tablet formulations.
Samples for pharmacokinetic (PK) and PD assessment were taken at repeated intervals over 48 hours.
Plasma samples used for PK assessment were analysed using a validated liquid chromatography tandem mass spectrometry (LC MS/MS) method.

[5] = Phase 2 study: safety (adverse events); format: in vivo, human
Protocol: In Part 1, subjects received a single oral dose of 600 mg of the compound to investigate the safety, PK and PD of the compound during the intercritical period between HAE attacks.
as §1
Safety Variables: • AEs, including serious adverse events (SAEs). • Laboratory test results (clinical chemistry, hematology, coagulation, and urinalysis). • Vital signs (SBP, DBP, PR, RR, body temperature). • Physical examination findings. • ECG results. • Pregnancy test (female subjects of child-bearing potential).
AEs were coded using the Medical Dictionary for Regulatory Activities (MedDRA) dictionary (v21.0 or higher) and classified by preferred term and system organ class (SOC). Listings of treatment-emergent adverse events (TEAEs), serious TEAEs, and TEAEs causing premature discontinuation will be provided by sequence group, and further classified by TEAE severity and relationship to study drug.

[6] = Phase 1 single ascending dose study: safety and tolerability; format: in vivo, human; conditions: phase I trial, healthy males
Source text: as §2

Human plasma kallikrein = biological target: T1, Human plasma kallikrein (Homo sapiens, UniProt P03952); assay: Plasma kallikrein inhibitory activity in vitro (purified enzyme, fluorogenic substrate); format: biochemical
T1 construct: purchased Protogen
T1 sequence (P03952 391-638 limits assumed): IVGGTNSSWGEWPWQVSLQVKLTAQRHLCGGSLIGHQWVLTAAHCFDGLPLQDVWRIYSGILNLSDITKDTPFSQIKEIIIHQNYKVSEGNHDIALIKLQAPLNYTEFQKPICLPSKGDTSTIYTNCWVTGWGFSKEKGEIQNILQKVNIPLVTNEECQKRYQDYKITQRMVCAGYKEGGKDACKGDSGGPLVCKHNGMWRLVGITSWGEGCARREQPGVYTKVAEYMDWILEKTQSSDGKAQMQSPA
T1 sequence (P03952 20-390 partner limits assumed): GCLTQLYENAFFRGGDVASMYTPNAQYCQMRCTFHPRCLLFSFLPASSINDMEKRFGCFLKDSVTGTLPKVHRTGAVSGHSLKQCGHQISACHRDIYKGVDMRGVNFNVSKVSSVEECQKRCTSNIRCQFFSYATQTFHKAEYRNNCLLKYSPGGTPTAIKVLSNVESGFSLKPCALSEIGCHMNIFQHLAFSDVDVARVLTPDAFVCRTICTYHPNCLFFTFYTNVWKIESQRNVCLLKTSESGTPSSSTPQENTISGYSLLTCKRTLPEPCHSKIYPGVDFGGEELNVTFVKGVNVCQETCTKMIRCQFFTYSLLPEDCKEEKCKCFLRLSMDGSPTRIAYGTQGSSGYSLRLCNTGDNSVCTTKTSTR
Protocol: Human plasma kallikrein (Protogen) was incubated at 25° C. with the fluorogenic substrate H-DPro-Phe-Arg-AFC and various concentrations of the test compound. Residual enzyme activity (initial rate of reaction) was determined by measuring the change in […] at 410 nm and the IC50 value for the test compound was determined.

[7] = biological target: PKa in DXS-activated plasma (Homo sapiens, UniProt P03952); assay: Catalytic activity of PKa in dextran sulfate-activated plasma (inhibitor added in vitro); format: biochemical; conditions: read-out: IC50 plasma enzyme
Chain of PKa in DXS-activated plasma (P03952 391-638 limits assumed): as the sequence (P03952 391-638 limits assumed) above
Chain of PKa in DXS-activated plasma (P03952 20-390 partner limits assumed): as the sequence (P03952 20-390 partner limits assumed) above
Protocol: Catalytic activity of PKa in dextran sulfate-activated (DXS, Sigma; 10 μg/ml) plasma (1:4 diluted or undiluted, VisuCon-F control plasma, Affinity Biologicals Inc) was determined by the time-dependent hydrolysis of fluorogenic substrate.

[8] = biological target: T2, plasma kallikrein activity in pre-activated plasma (Homo sapiens, UniProt P03952); assay: Inhibition of enzyme activity of pre-activated undiluted plasma (inhibitor added after DXS); format: biochemical; conditions: compound 300, 1000, 3000 nM; C1-INH 3000 nM; added 3.5 minutes post DXS (FIG. 3B)
T2 construct: from tissue
T2 sequence (P03952 391-638 limits assumed): as the sequence (P03952 391-638 limits assumed) above
T2 sequence (P03952 20-390 partner limits assumed): as the sequence (P03952 20-390 partner limits assumed) above
Protocol: The ability of the compound to inhibit the enzyme activity of pre-activated plasma was assessed by addition of the compound after DXS stimulation. Aliquots of plasma (20 μL) were mixed with a 2.5 μL solution containing […] fluorogenic substrate (H-DPro-Phe-Arg-AFC) and a 2.5 μL solution of dextran sulphate (DXS; 100 μg/mL) which acted as an activator of the plasma kallikrein-kinin pathway. Enzyme activity was immediately measured by monitoring the accumulation of fluorescence liberated from the substrate by substrate cleavage over 16 minutes. At 3.5 minutes post DXS addition 5 μl of inhibitors or water control are were added into each well. The compound was tested at concentrations of 300, 1000 and 3000 nM. C1-INH at a concentration of 3000 nM and vehicle controls were also included.

purified PKa = purified PKa (Homo sapiens, UniProt P03952); assay: Rate of formation of the enzyme-inhibitor complex (Kon) with purified PKa; format: biochemical
Chain of purified PKa (P03952 391-638 limits assumed): as the sequence (P03952 391-638 limits assumed) above
Chain of purified PKa (P03952 20-390 partner limits assumed): as the sequence (P03952 20-390 partner limits assumed) above
Protocol: The rate of formation of the enzyme-inhibitor complex (Kon) was determined using purified PKa rapidly mixed with a solution containing fluorogenic substrate and a concentration range of inhibitor. The time-dependent establishment of inhibition was then used to calculate the rate of formation of the enzyme-inhibitor complex for each concentration of inhibitor. The Kon was calculated by plotting the rate of inhibition versus the inhibitor concentration. Data in Table 1 are presented in μM^−1 sec^−1.

[9] = human, in vivo; cited from earlier work

Compound: N#Cc1cccc([C@@H](NCC2CC2)c2ccc(F)c(NC(=O)c3cc(C(F)(F)F)nn3-c3cccc(CN)c3)c2)c1 [berotralstat]
- gastrointestinal adverse effects [1]: more gastrointestinal adverse effects

- plasma exposure [4]: rapid and dose-dependent plasma exposure
Compound: COCc1nn(Cc2ccc(Cn3ccccc3=O)cc2)cc1C(=O)NCc1nccc(OC)c1F [compound of Formula A, N-[(3-fluoro-4-methoxypyridin-2-yl)methyl]-3-(methoxymethyl)-1-({4-[(2-oxopyridin-1-yl)methyl]phenyl}methyl)pyrazole-4-carboxamide]
- discontinuations because of an AE [2]: no subjects were discontinued because of an AE
- effects on the studied ECG parameters [2]: No clinically relevant effects
- serious adverse events [2]: No serious adverse events
- severity of all reported adverse events [2]: mild
- median time for attacks to be rated better or higher (7TQ) [3]: 5 h
- median time to onset of symptom relief on PGI-C (7TQ) [3]: 1.6 h
- median time to symptom relief, composite VAS score [3]: 6 h
- attacks rescued (use of rescue medication) ([3]; at 12 hours): 15.1%
- use of rescue medication ([3]; at 24 hours): 20.8%
- attacks improved to none on PGI-S (5LS) ([3]; within 12 hours): 56.6%
- attacks rated a little better or higher (7TQ) ([3]; within 12 hours): 83.0%
- attacks rated better or higher (7TQ) ([3]; within 12 hours): 58.7%
- attacks that do not worsen ([3]; within 12 hours): 79.2%
- attacks improved to none on PGI-S (5LS) ([3]; within 24 hours): 66.0%
- attacks rated a little better or higher (7TQ) ([3]; within 24 hours): 84.9%
- attacks rated better or higher (7TQ) ([3]; within 24 hours): 67.9%
- attacks that do not worsen (5LS) ([3]; within 24 hours): 69.8%
- on-treatment drug-related TEAEs, number of events ([5]; Part 1, open-label, 600 mg): 8
- patients with on-treatment drug-related TEAEs ([5]; Part 1, open-label, 600 mg): 5 patients
- on-treatment drug-related TEAEs, number of events ([5]; Part 2, crossover, 600 mg): 3
- serious adverse events ([5]; phase 2 trial): no serious adverse events
- withdrawals due to adverse events ([5]; phase 2 trial): no patients withdrew due to adverse events
- serious adverse events [6]: No serious adverse events
- tolerability signals [6]: no tolerability signals

- IC50 (Human plasma kallikrein): 50 nM
- IC50 [7]: 1700 nM
- inhibition of enzyme activity on addition after activation of plasma [8]: slower action
- Kon (purified PKa): 40000 M⁻¹ s⁻¹
Compound: C1-INH: C1 inhibitor (C1-INH, Sigma Cat #E0518), used as a therapeutic benchmark for HAE [Compound C1-INH]

Compound: Ecallantide
- anaphylactic reactions [9]: risks of anaphylactic reactions have been reported
